# According to ChEMBL document CHEMBL5346874, “New antiplasmodial 4-amino-thieno[3,2-d]pyrimidines with improved intestinal permeability and microsomal stability” (Eur J Med Chem, 2023):
# Tested on: Plasmodium falciparum
# Test: Antiplasmodial activity against blood stage Plasmodium falciparum K1 assessed as reduction in parasite growth incubated for 72 hrs by SYBR Green I fluorescence based method
# Type: functional, organism-based
# Settings: Plasmodium falciparum, K1, 72 h
row,Compound,EC50
1,Cc1ccc(-c2cc3nc(NC(C)(C)C)nc(N4CCC(NCc5cccc(C(F)(F)F)c5)CC4)c3s2)cc1,1.3 µM
2,Cc1ccc(-c2cc3nc(NC(C)(C)C)nc(N4CCC4)c3s2)cc1,0.7 µM
3,Cc1ccc(CNC2CCN(c3nc(NC(C)(C)C)nc4cc(-c5ccc(C)cc5)sc34)CC2)cc1,0.7 µM
4,Cc1ccc(-c2cc3nc(NC(C)(C)C)nc(NC4CCCCC4)c3s2)cc1,2.5 µM
5,Cc1ccc(-c2cc3nc(NC(C)(C)C)nc(N4CCC(NC(=O)OC(C)(C)C)CC4)c3s2)cc1,2.1 µM
6,Cc1ccc(-c2cc3nc(NC(C)(C)C)nc(N4CCC(NCc5ccc(Cl)cc5)CC4)c3s2)cc1,1 µM
7,Cc1ccc(-c2cc3nc(NC(C)(C)C)nc(N4CCC(N)CC4)c3s2)cc1,1 µM
8,Cc1ccc(-c2cc3nc(NC(C)(C)C)nc(NC4CCC4)c3s2)cc1,0.9 µM
9,Cc1ccc(-c2cc3nc(NC(C)(C)C)nc(N4CCOCC4)c3s2)cc1,1.6 µM
10,Cc1ccc(-c2cc3nc(NC(C)(C)C)nc(N4CCC(NCc5ccc([N+](=O)[O-])cc5)CC4)c3s2)cc1,0.7 µM
11,CCN(CC)CCCNc1nc(NC(C)(C)C)nc2cc(-c3ccc(C)cc3)sc12,0.2 µM
12,Cc1ccc(-c2cc3nc(NC(C)(C)C)nc(NC4CC4)c3s2)cc1,1.1 µM
13,Cc1ccc(-c2cc3nc(NC(C)(C)C)nc(NCCCN(C)C)c3s2)cc1,0.3 µM
14,CCN(CC)CCCC(C)Nc1ccnc2cc(Cl)ccc12 (centres undefined) [CHLOROQUINE],0.8 µM
15,C[C@H]1c2cccc(O)c2C(=O)C2=C(O)[C@]3(O)C(=O)C(C(N)=O)=C(O)[C@@H](N(C)C)[C@@H]3[C@@H](O)[C@@H]21 [DOXYCYCLINE],5 µM

# Tested on: Plasmodium berghei
# Test: Antimalarial activity against hepatic stage of Plasmodium berghei sporozoites GFP ANKA incubated for 3 hrs followed by replacement with fresh media for every 24 hrs by immunostaining analysis
# Type: functional, organism-based
# Settings: not given
row,Compound,EC50
1,CCN(CC)CCCNc1nc(NC(C)(C)C)nc2cc(-c3ccc(C)cc3)sc12.Cl.Cl,12.3 µM
2,CCN(CC)CCNc1nc(NC(C)(C)C)nc2cc(-c3ccc(C)cc3)sc12.Cl.Cl,14.4 µM

# Same assay, conditions: Plasmodium berghei, GFP ANKA
row,Compound,EC50
1,Cc1ccc(-c2cc3nc(NC(C)(C)C)nc(N4CCC4)c3s2)cc1,15.1 µM
2,Cc1ccc(CNC2CCN(c3nc(NC(C)(C)C)nc4cc(-c5ccc(C)cc5)sc34)CC2)cc1,15.4 µM
3,Cc1ccc(-c2cc3nc(NC(C)(C)C)nc(N4CCC(NCc5ccc(Cl)cc5)CC4)c3s2)cc1,14.2 µM
4,Cc1ccc(-c2cc3nc(NC(C)(C)C)nc(N4CCC(N)CC4)c3s2)cc1,31.4 µM
5,Cc1ccc(-c2cc3nc(NC(C)(C)C)nc(NC4CCC4)c3s2)cc1,6.5 µM
6,Cc1ccc(-c2cc3nc(NC(C)(C)C)nc(N4CCC(NCc5ccc([N+](=O)[O-])cc5)CC4)c3s2)cc1,7.3 µM
7,CCN(CC)CCCNc1nc(NC(C)(C)C)nc2cc(-c3ccc(C)cc3)sc12,11.5 µM
8,Cc1ccc(-c2cc3nc(NC(C)(C)C)nc(NCCCN(C)C)c3s2)cc1,15.3 µM

# Tested on: not listed separately
# Test: (§1) Cytotoxicity against cynomolgus monkey Primary hepatocyte assessed as cell viability
# Type: toxicity, cell-based, Macaca fascicularis
# Settings: primary hepatocytes
row,Compound,CC50
1,Cc1ccc(-c2cc3nc(NC(C)(C)C)nc(N4CCC4)c3s2)cc1,25.8 µM
2,Cc1ccc(CNC2CCN(c3nc(NC(C)(C)C)nc4cc(-c5ccc(C)cc5)sc34)CC2)cc1,35.5 µM
3,Cc1ccc(-c2cc3nc(NC(C)(C)C)nc(N4CCC(NCc5ccc(Cl)cc5)CC4)c3s2)cc1,36.1 µM
4,Cc1ccc(-c2cc3nc(NC(C)(C)C)nc(N4CCC(N)CC4)c3s2)cc1,31.6 µM
5,Cc1ccc(-c2cc3nc(NC(C)(C)C)nc(NC4CCC4)c3s2)cc1,8.8 µM
6,Cc1ccc(-c2cc3nc(NC(C)(C)C)nc(N4CCC(NCc5ccc([N+](=O)[O-])cc5)CC4)c3s2)cc1,15.8 µM
7,CCN(CC)CCCNc1nc(NC(C)(C)C)nc2cc(-c3ccc(C)cc3)sc12,25.8 µM

# Tested on: Hepatocyte
# Test: as §1
# Type: toxicity, cell-based, Macaca fascicularis
# Settings: hepatocytes
row,Compound,CC50
1,CCN(CC)CCCNc1nc(NC(C)(C)C)nc2cc(-c3ccc(C)cc3)sc12.Cl.Cl,27.6 µM
2,CCN(CC)CCNc1nc(NC(C)(C)C)nc2cc(-c3ccc(C)cc3)sc12.Cl.Cl,59.1 µM
3,Cc1ccc(-c2cc3nc(NC(C)(C)C)nc(NCCCN(C)C)c3s2)cc1,> 100 µM

# Tested on: not listed separately
# Test: Selectivity index, ratio of CC50 for against Macaca fascicularis Primary hepatocyte to EC50 for hepatic stage of Plasmodium berghei sporozoites GFP ANKA
# Type: toxicity
# Settings: cynomolgus monkey, primary hepatocytes; read-out: Ratio CC50/EC50
row,Compound,selectivity ratio
1,Cc1ccc(-c2cc3nc(NC(C)(C)C)nc(N4CCC4)c3s2)cc1,1.7
2,Cc1ccc(CNC2CCN(c3nc(NC(C)(C)C)nc4cc(-c5ccc(C)cc5)sc34)CC2)cc1,2.3
3,Cc1ccc(-c2cc3nc(NC(C)(C)C)nc(N4CCC(NCc5ccc(Cl)cc5)CC4)c3s2)cc1,2.5
4,Cc1ccc(-c2cc3nc(NC(C)(C)C)nc(N4CCC(N)CC4)c3s2)cc1,1
5,Cc1ccc(-c2cc3nc(NC(C)(C)C)nc(NC4CCC4)c3s2)cc1,1.3
6,Cc1ccc(-c2cc3nc(NC(C)(C)C)nc(N4CCC(NCc5ccc([N+](=O)[O-])cc5)CC4)c3s2)cc1,2.2
7,CCN(CC)CCCNc1nc(NC(C)(C)C)nc2cc(-c3ccc(C)cc3)sc12,2.2
8,Cc1ccc(-c2cc3nc(NC(C)(C)C)nc(NCCCN(C)C)c3s2)cc1,> 6.5

# Tested on: not listed separately
# Test: Solubility of the compound in PBS buffer at 1 mg incubated for 10 mins by HPLC analysis
# Type: physicochemical
# Settings: not given
row,Compound,solubility at 10 min
1,Cc1ccc(-c2cc3nc(NC(C)(C)C)[nH]c(=O)c3s2)cc1.Cl,7.92 µM
2,CCN(CC)CCCNc1nc(NC(C)(C)C)nc2cc(-c3ccc(C)cc3)sc12.Cl.Cl,1400 µM
3,CCN(CC)CCNc1nc(NC(C)(C)C)nc2cc(-c3ccc(C)cc3)sc12.Cl.Cl,1140 µM

# Tested on: not listed separately
# Test: Chromatographic hydrophobicity index, log D of the compound at pH 7.4 by HPLC analysis
# Type: physicochemical
# Settings: not given
row,Compound,chromatographic logD
1,Cc1ccc(-c2cc3nc(NC(C)(C)C)[nH]c(=O)c3s2)cc1.Cl,4.1
2,CCN(CC)CCCNc1nc(NC(C)(C)C)nc2cc(-c3ccc(C)cc3)sc12.Cl.Cl,4.23
3,CCN(CC)CCNc1nc(NC(C)(C)C)nc2cc(-c3ccc(C)cc3)sc12.Cl.Cl,4.81

# Tested on: not listed separately
# Test: Effective permeability of compound at pH 5 incubated for 4 hrs by PAMPA-GIT assay
# Type: ADME
# Settings: read-out: Peff
row,Compound,Papp at 4 h
1,CCN(CC)CCCNc1nc(NC(C)(C)C)nc2cc(-c3ccc(C)cc3)sc12.Cl.Cl,48.9 ×10⁻⁶ cm/s
2,CCN(CC)CCNc1nc(NC(C)(C)C)nc2cc(-c3ccc(C)cc3)sc12.Cl.Cl,51.2 ×10⁻⁶ cm/s

# Tested on: not listed separately
# Test: Effective permeability of compound at pH 6.0 incubated for 4 hrs by PAMPA-GIT assay
# Type: ADME
# Settings: read-out: Peff
row,Compound,Papp at 4 h
1,CCN(CC)CCCNc1nc(NC(C)(C)C)nc2cc(-c3ccc(C)cc3)sc12.Cl.Cl,46.6 ×10⁻⁶ cm/s
2,CCN(CC)CCNc1nc(NC(C)(C)C)nc2cc(-c3ccc(C)cc3)sc12.Cl.Cl,52.1 ×10⁻⁶ cm/s

# Tested on: not listed separately
# Test: Effective permeability of compound at pH 7.4 incubated for 4 hrs by PAMPA-GIT assay
# Type: ADME
# Settings: read-out: Peff
row,Compound,Papp at 4 h
1,Cc1ccc(-c2cc3nc(NC(C)(C)C)[nH]c(=O)c3s2)cc1.Cl,0.46 ×10⁻⁶ cm/s
2,CCN(CC)CCCNc1nc(NC(C)(C)C)nc2cc(-c3ccc(C)cc3)sc12.Cl.Cl,63.1 ×10⁻⁶ cm/s
3,CCN(CC)CCNc1nc(NC(C)(C)C)nc2cc(-c3ccc(C)cc3)sc12.Cl.Cl,73.9 ×10⁻⁶ cm/s

# Tested on: not listed separately
# Test: Metabolic stability in CD-1 mouse liver microsomes assessed as half life at pH 7.4 measured upto 40 mins in presence of NADP
# Type: ADME, Microsome
# Settings: not given
row,Compound,half-life
1,Cc1ccc(-c2cc3nc(NC(C)(C)C)[nH]c(=O)c3s2)cc1.Cl,11 min
2,CCN(CC)CCCNc1nc(NC(C)(C)C)nc2cc(-c3ccc(C)cc3)sc12.Cl.Cl,37 min
3,CCN(CC)CCNc1nc(NC(C)(C)C)nc2cc(-c3ccc(C)cc3)sc12.Cl.Cl,37 min

# Tested on: not listed separately
# Test: Metabolic stability in CD-1 mouse liver microsomes assessed as intrinsic clearance at pH 7.4 measured upto 40 mins in presence of NADP
# Type: ADME, Microsome
# Settings: read-out: CLH
row,Compound,microsomal CLint
1,Cc1ccc(-c2cc3nc(NC(C)(C)C)[nH]c(=O)c3s2)cc1.Cl,240 µL/min/mg
2,CCN(CC)CCCNc1nc(NC(C)(C)C)nc2cc(-c3ccc(C)cc3)sc12.Cl.Cl,61 µL/min/mg
3,CCN(CC)CCNc1nc(NC(C)(C)C)nc2cc(-c3ccc(C)cc3)sc12.Cl.Cl,63 µL/min/mg

# Target: Voltage-gated inwardly rectifying potassium channel KCNH2 (Homo sapiens, UniProt Q12809)
# Test: Inhibition of human ERG incubated for 4 hrs by fluorescence polarization assay
# Type: toxicity
# Settings: not given
# Voltage-gated inwardly rectifying potassium channel KCNH2, sequence (Q12809 whole entry): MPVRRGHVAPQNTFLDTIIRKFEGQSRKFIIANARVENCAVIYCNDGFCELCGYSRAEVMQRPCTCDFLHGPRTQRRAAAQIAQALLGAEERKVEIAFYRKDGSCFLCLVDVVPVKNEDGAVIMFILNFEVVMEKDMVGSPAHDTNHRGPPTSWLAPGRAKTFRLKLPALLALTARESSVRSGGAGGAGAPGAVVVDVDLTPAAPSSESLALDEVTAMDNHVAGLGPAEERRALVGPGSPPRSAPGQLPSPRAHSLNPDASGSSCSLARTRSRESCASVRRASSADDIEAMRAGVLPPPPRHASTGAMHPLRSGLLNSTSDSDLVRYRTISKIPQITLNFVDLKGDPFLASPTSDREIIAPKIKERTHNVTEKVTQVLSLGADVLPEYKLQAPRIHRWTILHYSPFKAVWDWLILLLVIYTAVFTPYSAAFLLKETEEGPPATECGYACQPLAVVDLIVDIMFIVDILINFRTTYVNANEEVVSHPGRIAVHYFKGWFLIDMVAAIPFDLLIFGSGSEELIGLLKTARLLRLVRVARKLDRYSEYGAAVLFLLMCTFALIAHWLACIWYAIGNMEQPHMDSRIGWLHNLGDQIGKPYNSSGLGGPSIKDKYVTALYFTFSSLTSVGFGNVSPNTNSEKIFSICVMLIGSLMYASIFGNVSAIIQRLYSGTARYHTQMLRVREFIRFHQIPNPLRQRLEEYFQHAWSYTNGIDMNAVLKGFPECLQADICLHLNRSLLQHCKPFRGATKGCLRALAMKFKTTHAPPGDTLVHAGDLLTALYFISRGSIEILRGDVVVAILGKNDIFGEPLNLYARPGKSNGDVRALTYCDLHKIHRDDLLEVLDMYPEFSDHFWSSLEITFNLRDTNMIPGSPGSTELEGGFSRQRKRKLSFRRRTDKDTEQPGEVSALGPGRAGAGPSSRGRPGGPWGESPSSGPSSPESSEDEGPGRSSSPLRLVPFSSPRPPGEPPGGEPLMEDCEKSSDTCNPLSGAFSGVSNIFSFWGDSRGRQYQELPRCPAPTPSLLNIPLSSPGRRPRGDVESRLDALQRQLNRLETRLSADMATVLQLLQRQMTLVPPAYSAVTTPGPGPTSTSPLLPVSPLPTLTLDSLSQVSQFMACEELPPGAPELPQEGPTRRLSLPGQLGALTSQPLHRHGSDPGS
row,Compound,IC50
1,CCN(CC)CCCNc1nc(NC(C)(C)C)nc2cc(-c3ccc(C)cc3)sc12.Cl.Cl,1.41 µM
2,CCN(CC)CCNc1nc(NC(C)(C)C)nc2cc(-c3ccc(C)cc3)sc12.Cl.Cl,1.07 µM
